Reference: patent publication US20060097218A1, “Etchants containing filterable surfactant” (General Chemical Performance Products LLC, priority 2004, published 2006)

What was measured:
Assay type in all cases: physicochemical
[1] = Solubility of surfactant in BOE (saturation point); conditions: BOE 7-1; prior to filtration
Experimental: Potential surfactant candidates were prepared and evaluated in an aqueous mixture comprised of about 35% by weight of ammonium fluoride, NH4F, and about 6.3% by weight of hydrofluoric acid, HF, (defined as BOE 7-1).

[2] = Preliminary testing of potential surfactants: comments and overall assessment; conditions: BOE 7-1; prior to filtration
Experimental: (§1) A preliminary testing was conducted prior to filtration to evaluate whether individual components of the claimed surfactant(s), would work individually, need modification, or require combining to give a basic understanding which would lead to synthesis of the surfactant(s) of the invention. Potential surfactant candidates were prepared and evaluated in an aqueous mixture comprised of about 35% by weight of ammonium fluoride, NH4F, and about 6.3% by weight of hydrofluoric acid, HF, (defined as BOE 7-1).

[3] = Surface tension measurement of surfactant-containing etchant; conditions: BOE 7-1 (about 35% NH4F, about 6.3% HF); 25° C.; prior to filtration; incremental additions until ST stabilized or saturation
Experimental: In the examples, a surfactant was added to a mixture of predetermined amounts of hydrofluoric acid, ammonium fluoride and deionized water to prepare an etchant composition. The prepared composition was kept standing at room temperature and test samples were periodically withdrawn to measure the change of surface tension of the composition.
as §1
In this run, surfactant “H” was tested with an aqueous solution of mixed etchants consisting of about 85% by weight of sulfuric acid, about 5% by weight of nitric acid, and about 1.5% by weight hydrofluoric acid. 100 ppm (Sample 1) and 200 ppm (Sample 2) by weight of surfactant “H” were mixed into two separate samples of FS Etch. The surface tension of both unfiltered samples was measured 1 hour upon batch completion and after 15 days of storage.
Additional measurements of surface tension at 25° C. were carried out on unfiltered aqueous etchants of (1) 40% by weight ammonium fluoride, and (2) 9.2% by weight of hydrofluoric acid containing 100 ppm by weight of surfactant “H” (Table I).

Row | Structure (SMILES) | Solubility In BOE [1] | Comments [2] | Promising (Yes/No) [2] | Surface Tension [3]
1 | O=C(O)C(F)(F)C(F)(F)C(F)(F)C(F)(F)C(F)(F)C(F)(F)F [Surfactant E, Perfluoroheptanoic Acid] | ≦100 ppm | Precipitated | No | 20 dynes/cm
2 | NC1CCCC1 [Surfactant C, Cyclopentylamine] | ≦400 ppm | ST too high | No | 65 dynes/cm
3 | NC1CCCCCC1 [Surfactant A, Cycloheptylamine] | ≦400 ppm | ST too high | No | 72 dynes/cm
4 | NC1CCCCCCC1 [Surfactant B, Cyclooctylamine] | ≦600 ppm | ST too high | No | 65 dynes/cm
5 | O=C(O)C(F)(F)C(F)(F)C(F)(F)C(F)(F)C(F)(F)C(F)(F)C(F)(F)F [Surfactant D, Perfluorooctanoic Acid] | ≦100 ppm | Precipitated | No | 20 dynes/cm
6 | O=C(O)C(F)(F)C(F)(F)C(F)(F)C(F)(F)F [Surfactant G, Perfluoropentanoic Acid] | ≦100 ppm | Precipitated | No | 24 dynes/cm
7 | O=C(O)C(F)(F)C(F)(F)C(F)(F)C(F)(F)C(F)(F)C(F)(F)C(F)(F)C(F)(F)F [Surfactant F, Perfluorononanoic Acid] | ≦100 ppm | Precipitated | No | 25 dynes/cm
